Assay results reported in patent US10450613B2, “EGFR/NEDD9/TGF-β interactome and methods of use thereof for the identification of agents having efficacy in the treatment of hyperproliferative disorders” (Fox Chase Cancer Center, priority 2007, dated 2019).

Legend:
[1] = test system: A431 cells; assay: siRNA library sensitization screen, Alamar blue (CellTiter Blue) viability, sensitization index (SI) with erlotinib, panitumumab, U0126, CPT11 vs DMSO; format: cell-based, human; settings: siRNA against the named gene, false discovery rate set at 5%; for Ratio (Erlotinib): sensitization to erlotinib; for Ratio (CPT11): sensitization to CPT11
Source text: The custom siRNA library targeting 638 human genes was designed and synthesized with two siRNA duplexes for each gene target (Qiagen, Valencia, Calif.). Transfection conditions were established for the A431 […] (K-Ras wt, p53 mutant) cell line (data not shown) using PLK1 & GL2 siRNA controls to achieve Z′ values of 0.5 or greater. IC values using erlotinib, panitumumab, and camptothecin (CPT11) were established (data not shown). Details of establishment of Z′ factor for transfections, and statistical consideration for selection of preliminary positive candidates graphically outlined in FIG. 4B, and based on standard approaches described in detail in Whitehurst et al., (2007) Nature 446:815). For each gene targeted, two independent siRNA duplexes were combined and arrayed in 96-well plates with a layout intended to seed in regular positive siRNA (targeting PLK1) and negative control siRNA (targeting insect luciferase GL2, Thermo Fisher Scientific, USA) amongst test siRNAs. A reverse transfection protocol was used where siRNA at final concentration of 50 nM was mixed with Dharmafect 1 transfection reagent according to the manufacturer's instructions (Thermo Fisher, USA). Cells (3500 per well, resuspended in 1% FBS/DMEM) were added directly to wells using an automated liquid dispenser. At 24 hr following transfection, two replica plates were treated with drugs at previously established IC30 or 0.02% DMSO diluted in culture media. The viability at 96 hr post-transfection was assessed using Alamar blue (CellTiter Blue Viability Assay, Promega, USA). Dose-responses for each drug and cell line were retested in parallel with each screen.
For screening, A431 cells were transfected with siRNA followed by exposure to vehicle (0.02% DMSO), or drug used at inhibitory concentrations of 30% KA. Viability was determined for each target gene and normalized to the averaged GL2 viability on each plate. Sensitization index (SI) was calculated for each individual well on a 96-well plate as SI=(Vdrug/GL2drug)/(VDMSO/GL2DMSO), where V was viability in wells transfected with targeting duplexes and GL2 was the averaged viability of 4 wells with non-targeting negative control siRNA on the same plate. All calculations were automated using cellHTS package within open source Bioconductor Package (on the web at bioconductor.org) (Gentleman et al. (2004) Genome Biol. 5:R80). The effect of drug treatment on viability was measured based on the normalized viabilities in the drug treated and vehicle wells using Limma (Smyth, G. K. (2004) Statistical Applications in genetics and molecular biology 3, Article 3). Limma borrows strength across genes based on an empirical Bayes approach and identifies statistically significant changes in viability by combining information from a set of gene-specific tests. Hits were identified based on statistical significance as well as biological significance. Statistical significance was determined by p-value controlled for the false discovery rate (FDR) using the Benjamini-Hochberg step-up method (Benjamini et al. (1995) J. Royal Stat Soc B 57:289) to account for multiple testing. […] Biological significance was arbitrarily defined as an increase or decrease in SI greater than 15%. Hits identified as statistically and biologically significant were further validated.
Primary sensitizing hits obtained with erlotinib and/or cetuximab were further tested with erlotinib and DMSO in the A431 cell line by using 4 siRNA duplexes individually (the two originally used in the screen, plus two new non-overlapping RNA oligoribonucleotides), to confirm the sensitization phenotype at 10 nM and 50 nM concentrations. Hits were considered as validated by this method if at least 2 out of 4 siRNA reproduced the sensitization phenotype with SI≤0.85, FDR≤20% for each individual siRNA sequence in at least two independent experiments. […]

[2] = test system: A431 cells; assay: Phosphoproteomic analysis, Proteome Profiler array of 46 signaling proteins; format: cell-based, human; settings: A431, serum starved, EGF-stimulated (FIG. 19A)
Protocol: For phosphoproteomic analysis, we used the Proteome Profiler™ array (R&D Systems, Minneapolis, Minn., USA) according to the manufacturer's protocol. In brief, A431 cells were grown for 24 hours in DMEM supplemented with L-glutamine and 1% FBS to 70% confluency. Cells then were either serum starved overnight or remained in the same media. Serum starved and cells incubated in 1% serum were either left untreated or incubated with IC30 concentrations of inhibitors for 3 hours. […] Serum-starved cells were subsequently stimulated with recombinant EGF (Sigma-Aldrich, USA) at 15 ng/mL for 15 minutes before lysis. For a subset of phospho-proteins, phosphorylation status was confirmed by Western blot. Quantification was done using ImageJ software.

[3] = test system: A431, HCT116, DLD-1, DKS-8, LoVo, SCC61, PANC-1 and MIA PaCa-2 cell lines; assay: Cell line specificity of hit activity: siRNA sensitization to erlotinib, cetuximab and CPT11, and intrinsic viability; format: cell-based, human; settings: network analysis of stronger hits (FIG. 14A)
Protocol: Cell line specificity of hit activity. Of the confirmed set of 61 siRNA targets identified for erlotinib in A431 cells, 45 were further tested for sensitization to erlotinib, cetuximab and camptothecin in A431 versus refractory adenocarcinoma cell lines for which optimal transfection conditions and drug sensitivity had been established. […] SI and statistical significance were calculated as in the validation experiments. All experiments were performed at least three times independently.
In subsequent data analysis, two approaches were used. […] For all experiments performed with a given cell:drug combination (e.g., A431:erlotinib, or HCT116:CPT11) averages were determined based on at least three experimental runs. […]
In additional experiments, we comparatively profiled the efficacy of the hit panel as sensitizers of erlotinib, cetuximab, and CPT11 across a set of cell lines, including A431, the colorectal adenocarcinoma cell lines HCT116, DLD-1, DKS-8, and LoVo, the head and neck squamous cell carcinoma cell line SCC61, and the pancreatic adenocarcinoma cell lines PANC-1 and MIA PaCa-2 (FIG. 13A). […] To compensate for this difference, we analyzed the data in two ways: first, by conventional threshold analysis (FIG. 13A, left), and second, by assessing the rank order of sensitization phenotype, using relaxed statistical criteria (FIG. 13A, right; see Materials and Methods). […]

[4] = test system: cancer cells; assay: Drug synergy testing (Chou-Talalay CI), cell line not stated (FIG. 17B); format: cell-based
Protocol: (§1) The coefficient of interaction (CI) between pharmacological inhibitors was established by the Chou-Talalay method (Chou et al., (1984) Adv Enzyme Regul 22:27). The software package CalcuSyn (BioSoft, UK) was used to automate calculations. Briefly, for each drug tested, an IC50 curve was established in each cell line, and used to select combination doses of drugs for subsequent synergy tests. 3500 cells were plated per well in 96-well plates. After 24 hours, cells were treated with serial dilutions of individual inhibitors, or combinations of two inhibitors maintained at a constant molar ratio. After 72 hours incubation, cell viability was measured using either CellTiter Blue (Promega, USA) or a WST1 assay (Roche Applied Science, Indianapolis, Ind.). The CI values for each dose and corresponding cytotoxicity were expressed as the fraction affected (Fa) and were calculated using CalcuSyn computer software and presented as Fa-CI plots. CI values <1 indicate synergy, and <0.5 strong synergy, between the two agents in producing cytotoxic effect.

[5] = test system: A431 cells; assay: Cell motility, wound healing assay; format: cell-based, human; settings: 0.5 μM erlotinib with 0.5 μM Stattic or 0.25 μM Ro-318220, 18 hours
Protocol: Soft agar assays were done essentially as described (10). Cells were seeded at 2000 cells per well and grown for 2-3 weeks. Colonies were stained with thiazolyl blue tetrazolium bromide, and scored using a Nikon SMZ1500 microscope coupled with Cool Snap charge coupled device camera (Roper Scientific, Inc., Tucson, Ariz.) with Image Pro-Plus software (Media Cybernetics, Silver Spring, Md.). Survival curves were based on at least two concentration points, with values determined in at least two separate experiments, with each assay done in duplicate. Drug interactions were calculated as above using CalcuSyn software (Biosoft, Ferguson, Mo.) to establish the combination index (CI). For motility assays, movement of A431 cells grown in 1% FCS into a scratched area of the monolayer was monitored with a phase contrast 10× objective using an inverted microscope (Nikon TE2000). Images were obtained every 20 min for 18 hours. Areas of migration were estimated using MetaMorph software. For both studies, analysis of variance was used to determine the treatment effect for each comparison. The logarithm of normalized ratios (to vehicle control) was used in the analysis. Multiple hypothesis testing was accounted for by the false discovery rate method of Benjamini & Hochberg (supra).

[6] = test system: A431 cells; assay: Drug synergy testing (Chou-Talalay CI), viability; format: cell-based, human; settings: 72 hours, CI <1 synergy, <0.5 strong synergy
Protocol: as §1

[7] = test system: HCT116 cells; assay: Drug synergy testing (Chou-Talalay CI), viability; format: cell-based, human; settings: HCT116; 72 hours; CI <1 synergy, <0.5 strong synergy
Protocol: as §1

[8] = test system: AKT; assay: Western analysis of AKT activation in A431 lysates (siRNA or inhibitors), basal and EGF-stimulated; format: cell-based, human; settings: serum starvation or EGF stimulation (FIG. 16)
Protocol: To measure the effect of siRNAs on the activity of EGFR effectors, cells were transfected with siRNA, and the culture media replaced with glutamine-supplemented serum-free DMEM at 24 hrs post-transfection. After overnight incubation, cells were treated with DMSO, erlotinib or PHA-680632 for 2 hrs, then either left untreated, or stimulated with EGF at 15 ng/ml for 15 minutes. Cell extracts were prepared using M-PER™ mammalian protein extraction buffer (Thermo Scientific, Rockford, Ill.) supplemented with the Halt™ phosphatase inhibitor cocktail (Thermo Scientific, Rockford, Ill.) and the Complete Mini™ protease inhibitor cocktail (Roche Diagnostics Gmbh, Manheim, Germany). Extracts were centrifuged at 15,000 g for 10 min at 4° C. Western signal detection was performed using antibodies to indicated proteins with LiCor technology (Lincoln, Nebr., USA) or standard X-ray film.

“MAP3K1 (sense CACGCATGTCAAATTCTCATA; target sequence only, antisense strand not given here)” was tested, and the “Ratio (Erlotinib)” value [1] was 0.66.

With `C#Cc1cccc(Nc2ncnc3cc(OCCOC)c(OCCOC)cc23)c1` [erlotinib] the “Phosphorylation of 46 signaling proteins, single agent” value [2] was “blocked EGF-induced activation of multiple signaling pathways”.

In the case of “PRKACB: siRNA duplexes of the custom library targeting PRKACB (sense CAGCCTGTGTAGTGTGACAAA; target sequence only, antisense strand not given here)”, the “Sensitizing activity of stronger hits across cell lines” value [3] was “strong sensitizers”, the “Ratio (CPT11)” value [1] was 0.43 and the “Ratio (Erlotinib)” value [1] was 0.53. The “Ratio (Panitumumab)” value ([1]; sensitization to panitumumab) was 0.63.

`O=C(Nc1cccc(Nc2nccc(Nc3cccc(C(F)(F)F)c3)n2)c1)C1CC1` [C1368] was tested, and the “Synergy with erlotinib (Chou-Talalay CI)” value [4] was “synergized”.

For `Cn1cc(C2=C(c3cn(CCCSC(=N)N)c4ccccc34)C(=O)NC2=O)c2ccccc21` [Ro-318220], the “Cell motility, inhibitor in combination with erlotinib” value [5] was “significantly reduced tumor cell motility”, the “Synergy with erlotinib in reducing viability (Chou-Talalay CI)” value [6] was “synergized very significantly” and the “Synergy with erlotinib in reducing viability (Chou-Talalay CI)” value [7] was “synergized very significantly”.

In the case of `Cn1cc(C2=C(c3cn(C4CCN(Cc5ccccn5)CC4)c4ccccc34)C(=O)NC2=O)c2ccccc21` [enzastaurin], the “Akt S473 phosphorylation, inhibitor in combination with erlotinib” value [8] was “significantly reduced phosphorylation”, the “Synergy with erlotinib in reducing viability (Chou-Talalay CI)” value [6] was “synergized very significantly” and the “Synergy with erlotinib in reducing viability (Chou-Talalay CI)” value [7] was “synergized very significantly”.

`O=[N+]([O-])c1ccc2c(c1)S(=O)(=O)C=C2` [Stattic] was tested, and the “Cell motility, inhibitor in combination with erlotinib” value [5] was “no statistically significant synergy”, the “Akt S473 phosphorylation, inhibitor in combination with erlotinib” value [8] was “significantly reduced phosphorylation” and the “Synergy with erlotinib in reducing viability (Chou-Talalay CI)” value [6] was “synergized with erlotinib”. The “Synergy with erlotinib in reducing viability (Chou-Talalay CI)” value [7] was “synergized with erlotinib”.

“GRB14 (sense AAGAATGTATTTCACCTGCAA; target sequence only, antisense strand not given here)” was tested, and the “Ratio (Erlotinib)” value [1] was 0.54.

For “GAB2 (sense CACCAATTCTGAAGACAACTA; target sequence only, further chemistry not given here)”, the “Ratio (CPT11)” value [1] was 0.83.
